Assay results taken from patent US11541130B2, “Systems and methods for nucleic acid expression in vivo” (DNARx, priority 2017, dated 2023).

Tests used:
[1] = assay type: in vivo; details: mice
[2] = in vivo; cited from earlier work

dexamethasone palmitate
Serum anti-CD20 mAb (Rituximab) level, in words ([1]; ELISA 24 hrs after sequential injection (Example 18: also over time)): further increases gene expression in vivo

Rituximab: anti-CD20 monoclonal antibody expressed in mice from plasmid vector containing Rituximab cDNA
Duration of serum anti-CD20 mAb (Rituximab) expression ([1]; after a single sequential IV injection, 1050 nmol DOTAP 2.5% DP, 75 ug plasmid): over 275 days

B1: Neupogen: recombinant human G-CSF protein (protein, UniProt P09919 31-207, looked up)
Granulocyte …: TPLGPASSLPQSFLLKCLEQVRKIQGDGAALQEKLVSECATYKLCHPEELVLLGHSLGIPWAPLSSCPSQALQLAGCLSQLHSGLFLYQGLLQALEGISPELGPTLDTLQLDVADFATTIWQQMEELGMAPALQPTQGAMPAFASAFQRRAGGVLVASHLQSFLEVSYRVLRHLAQP
modifications: filgrastim
notes: recombinant human G-CSF protein
Time for serum HG-CSF levels to return to baseline after each daily dose [2]: approximately 14 hours
